We go through five compounds from US10231960B2, “Methylphenidate-prodrugs, processes of making and using the same” (KemPharm, Inc., priority 2011, dated 2019).

Data set [1] in a line: Oral PK in rats: plasma methylphenidate released from conjugates vs unconjugated methylphenidate (LC-MS/MS). As to conditions: oral gavage; for Tmax: Tmax (Methylphenidate). From the text: Exemplary prodrug conjugates of the present technology were synthesized as described above. The oral plasma concentrations of methylphenidate released from nicotinate-CH2OCO-MPH, phosphate-CH2OCO-MPH, gallate-CH2OCO-MPH, lactate-CH2OCO-MPH, MPH-CO2CH2-nicotinoyl-Asp, MPH-CO2CH2-nicotinoyl-Val, MPH-CO2CH2-nicotinoyl-Gly-Ala, Val-6-aminohexanoate-CH2OCO-MPH, MPH-CO2CH2-nicotinamide, 6-aminohexanoate-CH2OCO-MPH, MPH-CO2CH2-nicotinoyl-O^tBu, MPH-CO2CH2-nicotinate, MPH-CO2CH2-nicotinoyl-OEL MPH-CO2CH2-pyridine, isonicotinate-CH2OCO-MPH and phosphate-(p-salicylate)-CH2OCO-MPH were compared with unconjugated methylphenidate after oral administration in rats. Rats were dosed with oral solutions of the conjugated prodrugs in an amount equivalent to 2 mg/kg of methylphenidate free base and compared to an equimolar solution of unconjugated methylphenidate hydrochloride.
The plasma concentrations of methylphenidate were measured by LC-MS/MS over time.
The dosing vehicles for the PK experiments are as follows: FIG. 13—10% Tween in water. FIGS. 14 and 15—water. FIG. 16—conjugate in 50% PEG-400 in water; control: water. FIG. 17—50% PEG-400 in water. FIG. 18—10% Tween in water. FIGS. 19-27—water. FIGS. 28 and 29—phosphate buffered saline (PBS). FIG. 30—10% Tween in water.

The conditions of data set [2]: water, at 32° C.; cited from earlier work.
A short description of data set [3]: Intravenous PK in rats: plasma methylphenidate released from conjugates vs unconjugated methylphenidate. The class given is in vivo. As to conditions: rat, unconjugated methylphenidate comparator, dosed intravenously. From the text:
(§1) FIGS. 14 and 15—water. […] FIG. 17—50% PEG-400 in water. FIG. 18—10% Tween in water. FIGS. 19-27—water. FIGS. 28 and 29—phosphate buffered saline (PBS). FIG. 30—10% Tween in water.

Data set [4] is described as follows: Intranasal PK in rats: plasma methylphenidate released from conjugates vs unconjugated methylphenidate. The class given is in vivo. As to conditions: rat, inhaled or intranasal, unconjugated methylphenidate comparator, dosed intranasally.
Source text: as §1

A short description of data set [5]: Water solubility at ambient temperature. It counts as physicochemical. On the procedure: The water solubility of phosphate-CH2OCO-methylphenidate and unconjugated methylphenidate was determined at ambient temperature and the results are found in Table 5.
Where [6] appears, read: conjugate relative to unconjugated methylphenidate.
The mark [7] stands for this setting: plasma methylphenidate released from conjugate, equivalent to 2 mg/kg methylphenidate free base.
Setting [8] is: read-out: AUC0-4 h (Methylphenidate).
Where [9] appears, read: conjugate relative to methylphenidate hydrochloride from combined data of six studies.
The mark [10] stands for this setting: calculated from combined data of three studies (footnote a).

Molecules are shown by their SMILES. Converted amounts (≈) assume the structure as drawn.

For `COC(=O)C(c1ccccc1)C1CCCCN1C(=O)OCOC(=O)CCCCCN` (centres unmarked) [6-Aminohexanoate-CH2OCO-MPH, (6-aminohexanoyloxy)methyl methylphenidate-1-carboxylate], in data set [1] (setting [6]), the AUC-% is on record as 82%, the Cmax-% amounted to 109% and the Tmax-% is 88%. Also, in data set [1] (setting [7]), the “AUC0-4 h (Conjugate)” value turned out to be 0.1456 µg·h/mL, the “Cmax (Conjugate)” value was determined as 0.1735 µg/mL and the “Tmax (Conjugate)” value was found to be 21 min.

Consider `COC(=O)C(c1ccccc1)C1CCCCN1C(=O)OCOC(=O)C(C)O` (centres unmarked) [Lactate-CH2OCO-MPH, lactate-CH2OCO-MPH], for which, in data set [1] (setting [6]), the AUC-% is on record as 73%, the Cmax-% worked out at 75% and the Tmax-% stood at 120%. Moreover, in data set [1] (setting [7]), the “AUC0-4 h (Conjugate)” value came to 0.1323 µg·h/mL, the “Cmax (Conjugate)” value worked out at 0.1225 µg/mL and the “Tmax (Conjugate)” value was determined as 18 min.

Usually Cmax stands for the highest concentration seen after dosing. As usually defined, the Tmax is the time from dosing to the highest level. As usually defined, the solubility is the concentration that dissolves in the medium under given conditions. Higher therefore signals much dissolved substance. As for `COC(=O)C(c1ccccc1)C1CCCCN1` (centres unmarked) [Methylphenidate, methyl phenyl(piperidin-2-yl)acetate], the “Solubility data found in the literature” value in data set [2] is listed as 191 mg/mL (≈ 819 mM). The Cmax in data set [3] is 0.296 µg/mL; in data set [1] (rat, plasma, po, 2 mg/kg, Cmax (Methylphenidate), methylphenidate hydrochloride, combined data of six studies (footnotes a, b)), 0.114 µg/mL; in data set [4], 2.21 µg/mL. For the same compound, the Tmax worked out at 31 min in data set [3]; 17 min in data set [1] (rat, plasma, po, 2 mg/kg, methylphenidate hydrochloride, combined data of six studies (footnotes a, b)); 15 min in data set [1] (rat, plasma, po, 2 mg/kg, unconjugated methylphenidate hydrochloride comparator of the same row, equimolar); 6.96 min in data set [4]. Further, the AUC(0-t) in data set [3] (setting [8]) stood at 0.32 µg·h/mL; in data set [1] (rat, plasma, po, 2 mg/kg, AUC0-4 h (Methylphenidate), methylphenidate hydrochloride, combined data of six studies (footnotes a, b)) it was 0.106 µg·h/mL; in data set [4] (setting [8]), 1.05 µg·h/mL. Besides, in data set [5] (water), the solubility came to 169 mg/mL (≈ 724 mM).

Take `COC(=O)C(c1ccccc1)C1CCCCN1C(=O)OCOP(=O)(O)O` (centres unmarked) [Phosphate-CH2OCO-MPH, phosphate-CH2OCO-MPH]: in data set [1] (setting [9]), the AUC-% is given as 146%, the Cmax-% was 140% and the Tmax-% came to 88%. Besides, in data set [1] (setting [6]), the AUC-% was 185%, the Cmax-% was 144% and the Tmax-% is listed as 100%. Moreover, in data set [1] (setting [10]), the “AUC0-4 h (Conjugate)” value was 0.1545 µg·h/mL, the “Cmax (Conjugate)” value was 0.1589 µg/mL and the “Tmax (Conjugate)” value is 15 min. In addition, in data set [1] (setting [7]), the “AUC0-4 h (Conjugate)” value was 0.1108 µg·h/mL, the “Cmax (Conjugate)” value is 0.1108 µg/mL and the “Tmax (Conjugate)” value is 15 min. In data set [5], the “Solubility in Water” value was determined as 432 mg/mL. In addition, the “Water solubility relative to the unconjugated form” value in data set [5] (vs unconjugated methylphenidate hydrochloride) is reported as “about 2.5 times”.

As for `COC(=O)C(c1ccccc1)C1CCCCN1C(=O)OCOC(=O)CCCCCNC(=O)C(N)C(C)C` (centres unmarked) [Val-6-aminohexanoate-CH2OCO-MPH], in data set [1] (setting [6]), the AUC-% is listed as 58%, the Cmax-% is given as 59% and the Tmax-% stood at 83%. Besides, in data set [1] (setting [7]), the “AUC0-4 h (Conjugate)” value was determined as 0.0449 µg·h/mL, the “Cmax (Conjugate)” value was found to be 0.0527 µg/mL and the “Tmax (Conjugate)” value was found to be 15 min.
